Reference: ChEMBL document CHEMBL5338828, “Structure-Activity Relationships of Bis-Intercalating Peptides and Their Application as Antibody-Drug Conjugate Payloads” (J Med Chem, 2023)
The source made the active and inactive calls. The rule behind the calls is not given here. Where a SMILES comes first, the peptide text is derived from it. Bridges are numbered along the chain shown (N, C = ends). Roman numbers before positions name the chains, in order. [ ]: non-standard residue; d: D form. The star is where a group is joined. Quinaldoyl(3-OH) = O=C(c1nc2ccccc2cc1O)*; NMeV = CN[C@H](C(=O)O)C(C)C; Pip = O=C(O)[C@@H]1CCCCN1; dDap = NC[C@@H](N)C(=O)O

What was measured:
[1] = Binding affinity to biotinylated hairpin DNA (unknown origin) at 0.312 to 5 uM by SPR analysis; conditions: dose 0.312-5 µM
[2] = Retention time of the compound by HPLC analysis; type: physicochemical
EBC-1 = assay: Cytotoxicity against human EBC-1 cells assessed as inhibition of cell growth incubated for 5 days by CellTiter-Glo luminescence assay; type: functional, cell-based; conditions: EBC-1, 120 h
[3] = Binding affinity to biotinylated hairpin DNA (unknown origin) assessed as binding constant by SPR analysis
OVCAR-3 = assay: Cytotoxicity against human OVCAR-3 cells assessed as inhibition of cell growth incubated for 5 days by CellTiter-Glo luminescence assay; type: functional, cell-based; conditions: OVCAR-3, 120 h
[4] = Stability in mouse plasma assessed as parent compound remaining measured after 24 hrs by LC-MS analysis; type: ADME, cell-free; conditions: read-out: Stability
Clupeidae = assay: Binding affinity to Herring sperm DNA assessed as melting temperature by differential scanning calorimetric analysis
[5] = Stability in mouse plasma assessed as half-life at 1 uM measured upto 1440 min by UHPLC-MS/MS analysis; type: ADME, cell-free
IGROV-1 = assay: Cytotoxicity against human IGROV-1 cells assessed as inhibition of cell growth incubated for 5 days by CellTiter-Glo luminescence assay; type: functional, cell-based; conditions: IGROV-1, 120 h
[6] = Stability in mouse plasma at 1 uM measured upto 1440 min by UHPLC-MS/MS analysis; type: ADME, cell-free; conditions: 24 h

SMILES | Retention_time [2] [min] | Kd [3] [nM] | Tm (Clupeidae) [°C] | other results
CC(C)[C@H]1C(=O)NCC(=O)N(C)CC(=O)N2CCCC[C@H]2C(=O)NC[C@@H](NC(=O)c2nc3ccccc3cc2O)C(=O)N(C)[C@@H](C(C)C)C(=O)NCC(=O)N(C)CC(=O)N2CCCC[C@H]2C(=O)NC[C@@H](NC(=O)c2nc3ccccc3cc2O)C(=O)N1C | 16.8 |  |  | Activity [1]: inactive
CC(C)[C@H]1C(=O)OC[C@@H](NC(=O)c2nc3ccccc3cc2O)C(=O)N2CCCC[C@H]2C(=O)NCC(=O)N(C)CC(=O)N(C)[C@@H](C(C)C)C(=O)OC[C@@H](NC(=O)c2nc3ccccc3cc2O)C(=O)N2CCCC[C@H]2C(=O)NCC(=O)N(C)CC(=O)N1C | 21.6 | 360 | 102 | IC50 (EBC-1): 1.4 nM; IC50 (OVCAR-3): 1 nM; remaining at 24 h [4]: < 5%; half-life at 1 µM [5]: 330 min; IC50 (IGROV-1): 1.6 nM
CC(C)[C@H]1C(=O)NC[C@@H](NC(=O)c2nc3ccccc3cc2O)C(=O)N2CCCC[C@H]2C(=O)NCC(=O)N(C)CC(=O)N2CCCCC[C@H]2C(=O)NC[C@@H](NC(=O)c2nc3ccccc3cc2O)C(=O)N2CCCC[C@H]2C(=O)NCC(=O)N(C)CC(=O)N1C | 16.4 | 700 | 88 | 
CC(C)[C@H]1C(=O)NC[C@@H](NC(=O)c2nc3ccccc3cc2O)C(=O)N2CCCC[C@H]2C(=O)NCC(=O)N(C)CC(=O)N(C)[C@@H]([C@H](C)OC(C)(C)C)C(=O)NC[C@@H](NC(=O)c2nc3ccccc3cc2O)C(=O)N2CCCC[C@H]2C(=O)NCC(=O)N(C)CC(=O)N1C | 18.4 |  | 88 | 
CC(C)[C@H]1COC[C@@H](NC(=O)c2nc3ccccc3cc2O)C(=O)N2CCCC[C@H]2C(=O)NCC(=O)N(C)CC(=O)N(C)[C@@H](C(C)C)COC[C@@H](NC(=O)c2nc3ccccc3cc2O)C(=O)N2CCCC[C@H]2C(=O)NCC(=O)N(C)CC(=O)N1C | 18.2 |  | 91 | 
CC(C)[C@H]1C(=O)N(C)C[C@@H](NC(=O)c2nc3ccccc3cc2O)C(=O)N2CCCC[C@H]2C(=O)NCC(=O)N(C)CC(=O)N(C)[C@@H](C(C)C)C(=O)N(C)C[C@@H](NC(=O)c2nc3ccccc3cc2O)C(=O)N2CCCC[C@H]2C(=O)NCC(=O)N(C)CC(=O)N1C | 17.7 |  | 88 | 
CC(C)[C@H]1C(=O)NC[C@@H](NC(=O)c2nc3ccccc3cc2O)C(=O)N2CCCC[C@H]2C(=O)NCC(=O)NCC(=O)N(C)[C@@H](C(C)C)C(=O)NC[C@@H](NC(=O)c2nc3ccccc3cc2O)C(=O)N2CCCC[C@H]2C(=O)NCC(=O)NCC(=O)N1C (I: {Quinaldoyl(3-OH)}-[dDap][Pip]GG[NMeV] / II: {Quinaldoyl(3-OH)}-[dDap][Pip]GG[NMeV]; amide I:1-II:C, I:C-II:1) | 15.1 |  |  | Activity [1]: inactive
CC(C)[C@H]1COC[C@@H](NC(=O)c2nc3ccccc3cc2O)C(=O)N2CCCC[C@H]2C(=O)NCC(=O)N(C)CC(=O)N(C)[C@@H](C(C)C)C(=O)OC[C@@H](NC(=O)c2nc3ccccc3cc2O)C(=O)N2CCCC[C@H]2C(=O)NCC(=O)N(C)CC(=O)N1C | 20.2 | 300 | 96 | 
CC(C)[C@H]1C(=O)NC[C@@H](NC(=O)c2nc3ccccc3cc2O)C(=O)N2CCCC[C@H]2C(=O)NCC(=O)N(C)CC(=O)N(C)[C@@H](C(C)C)C(=O)OC[C@@H](NC(=O)c2nc3ccccc3cc2O)C(=O)N2CCCC[C@H]2C(=O)NCC(=O)N(C)CC(=O)N1C | 19.6 | 80 | 97 | IC50 (EBC-1): 0.6 nM; IC50 (OVCAR-3): 0.6 nM; half-life at 1 µM [5]: 720 min; IC50 (IGROV-1): 1.2 nM
CC[C@H](C)[C@H]1C(=O)N[C@H](C)[C@@H](NC(=O)c2nc3ccccc3cc2O)C(=O)N2CCCC[C@H]2C(=O)NCC(=O)N(C)CC(=O)N(C)[C@@H]([C@@H](C)CC)C(=O)N[C@H](C)[C@@H](NC(=O)c2nc3ccccc3cc2O)C(=O)N2CCCC[C@H]2C(=O)NCC(=O)N(C)CC(=O)N1C | 20.9 |  | 85 | 
CC(C)[C@H]1C(=O)NC[C@@H](NC(=O)c2nc3ccccc3cc2O)C(=O)N2CCCC[C@H]2C(=O)NCC(=O)N(C)CC(=O)N(C)[C@@H](C2CCCCC2)C(=O)NC[C@@H](NC(=O)c2nc3ccccc3cc2O)C(=O)N2CCCC[C@H]2C(=O)NCC(=O)N(C)CC(=O)N1C | 18.9 | 400 | 86 | 
CC(C)[C@H]1C(=O)NC[C@@H](NC(=O)c2nc3ccccc3cc2O)C(=O)N2CCCC[C@H]2C(=O)NCC(=O)N(C)CC(=O)N2CCC[C@H]2C(=O)NC[C@@H](NC(=O)c2nc3ccccc3cc2O)C(=O)N2CCCC[C@H]2C(=O)NCC(=O)N(C)CC(=O)N1C | 15 | 1100 | 88 | 
CC[C@H](C)[C@H]1C(=O)NC[C@@H](NC(=O)c2nc3ccccc3cc2O)C(=O)N2CCCC[C@H]2C(=O)NCC(=O)N(C)CC(=O)N(C)[C@@H](C(C)C)C(=O)NC[C@@H](NC(=O)c2nc3ccccc3cc2O)C(=O)N2CCCC[C@H]2C(=O)NCC(=O)N(C)CC(=O)N1C | 18 | 200 | 89 | 
CC(C)[C@H]1C(=O)NC[C@@H](NC(=O)c2nc3ccccc3cc2O)C(=O)N2CCCC[C@H]2C(=O)NCC(=O)N(C)CC(=O)N(C)[C@@H](C(C)C)C(=O)NC[C@@H](NC(=O)c2nc3ccccc3cc2O)C(=O)N2CCCC[C@H]2C(=O)NCC(=O)N(C)CC(=O)N1C | 17.1 | 3300 | 88 | IC50 (EBC-1): 46 nM; IC50 (OVCAR-3): 18 nM; Stability [6]: Stable; IC50 (IGROV-1): 39 nM
CN1CC(=O)N2CCCC[C@H]2COC[C@@H](NC(=O)c2nc3ccccc3cc2O)C(=O)N2CCCC[C@H]2C(=O)NCC(=O)N(C)CC(=O)N2CCCC[C@H]2C(=O)NC[C@@H](NC(=O)c2nc3ccccc3cc2O)C(=O)N2CCCC[C@H]2C(=O)NCC1=O | 16.6 | 950 | 94 | 
CC(C)[C@H]1COC[C@@H](NC(=O)c2nc3ccccc3cc2O)C(=O)N2CCCC[C@H]2C(=O)NCC(=O)N(C)CC(=O)N(C)[C@@H](C(C)C)C(=O)NC[C@@H](NC(=O)c2nc3ccccc3cc2O)C(=O)N2CCCC[C@H]2C(=O)NCC(=O)N(C)CC(=O)N1C | 18.4 | 300 | 92 | IC50 (EBC-1): 5.4 nM; IC50 (OVCAR-3): 2.9 nM; Stability [6]: Stable; IC50 (IGROV-1): 6.4 nM
CC(C)[C@H]1C(=O)NC[C@@H](NC(=O)c2nc3ccccc3cc2O)C(=O)N2CCCC[C@H]2C(=O)NCC(=O)N(C)CC(=O)N2CCCC[C@H]2C(=O)NC[C@@H](NC(=O)c2nc3ccccc3cc2O)C(=O)N2CCCC[C@H]2C(=O)NCC(=O)N(C)CC(=O)N1C | 16.4 | 570 | 92 | 
O=C(N[C@@H]1CNC(=O)[C@@H]2CCCCN2C(=O)COCCNC(=O)[C@@H]2CCCCN2C(=O)[C@H](NC(=O)c2nc3ccccc3cc2O)CNC(=O)[C@@H]2CCCCN2C(=O)COCCNC(=O)[C@@H]2CCCCN2C1=O)c1nc2ccccc2cc1O | 16.1 |  | 68 | 
CC(C)[C@H]1C(=O)NC[C@@H](NC(=O)c2nc3ccccc3cc2O)C(=O)N2CCCC[C@H]2C(=O)NCCOCC(=O)N(C)[C@@H](C(C)C)C(=O)NC[C@@H](NC(=O)c2nc3ccccc3cc2O)C(=O)N2CCCC[C@H]2C(=O)NCCOCC(=O)N1C | 16 |  | 68 | 
CC(C)[C@H]1C(=O)NC[C@@H](NC(=O)c2nc3ccccc3cc2O)C(=O)N2CCCC[C@H]2C(=O)NCC(=O)N(C)CC(=O)N(C)[C@@H]([C@@H](C)O)C(=O)NC[C@@H](NC(=O)c2nc3ccccc3cc2O)C(=O)N2CCCC[C@H]2C(=O)NCC(=O)N(C)CC(=O)N1C | 10.6 |  | 86 | 
CCOC(=O)[C@H](CCc1ccccc1)N[C@@H](C)C(=O)N1CCC[C@H]1C(=O)O [ENALAPRIL] |  |  |  | half-life at 1 µM [5]: 170 min
CN1CC(=O)N2CCCC[C@H]2C(=O)NC[C@@H](NC(=O)c2nc3ccccc3cc2O)C(=O)N2CCCC[C@H]2C(=O)NCC(=O)N(C)CC(=O)N2CCCC[C@H]2C(=O)NC[C@@H](NC(=O)c2nc3ccccc3cc2O)C(=O)N2CCCC[C@H]2C(=O)NCC1=O | 15.7 | 500 | 97 | 
CC(C)[C@H]1C(=O)N[C@H](C)[C@@H](NC(=O)c2nc3ccccc3cc2O)C(=O)N2CCCC[C@H]2C(=O)NCC(=O)N(C)CC(=O)N(C)[C@@H](C(C)C)C(=O)N[C@H](C)[C@@H](NC(=O)c2nc3ccccc3cc2O)C(=O)N2CCCC[C@H]2C(=O)NCC(=O)N(C)CC(=O)N1C | 17.6 |  | 87 | 
CC[C@H](C)[C@H]1C(=O)NC[C@@H](NC(=O)c2nc3ccccc3cc2O)C(=O)N2CCCC[C@H]2C(=O)NCC(=O)N(C)CC(=O)N(C)[C@@H]([C@@H](C)CC)C(=O)NC[C@@H](NC(=O)c2nc3ccccc3cc2O)C(=O)N2CCCC[C@H]2C(=O)NCC(=O)N(C)CC(=O)N1C | 18.8 | 400 | 91 | 
CC(C)[C@H]1C(=O)O[C@H](C)[C@@H](NC(=O)c2nc3ccccc3cc2O)C(=O)N2CCCC[C@H]2C(=O)NCC(=O)N(C)CC(=O)N(C)[C@@H](C(C)C)C(=O)O[C@H](C)[C@@H](NC(=O)c2nc3ccccc3cc2O)C(=O)N2CCCC[C@H]2C(=O)NCC(=O)N(C)CC(=O)N1C | 21.6 |  | 85 | 
